Experimental data taken from PMC2649372 (Biochemistry, 2008).
Changes are numbered by the printed parent chain. “And” between values parts separate entries of the source, which are not always exact repeats. Equal entries are not always repeated. Marks after values point to notes of the source that are not given here.

Legend:
[1] = molecular target: T1, E129D mutant 5-HT3 receptor (mouse 5-HT3A subunit) (Mus musculus, UniProt P23979, E129D); experiment: Granisetron inhibition of 5-HT-induced responses in oocytes; assay type: cell-based; details: EC50 concentration of 5-HT
T1 sequence (P23979 24-483 isoform P23979-2 E129D limits assumed): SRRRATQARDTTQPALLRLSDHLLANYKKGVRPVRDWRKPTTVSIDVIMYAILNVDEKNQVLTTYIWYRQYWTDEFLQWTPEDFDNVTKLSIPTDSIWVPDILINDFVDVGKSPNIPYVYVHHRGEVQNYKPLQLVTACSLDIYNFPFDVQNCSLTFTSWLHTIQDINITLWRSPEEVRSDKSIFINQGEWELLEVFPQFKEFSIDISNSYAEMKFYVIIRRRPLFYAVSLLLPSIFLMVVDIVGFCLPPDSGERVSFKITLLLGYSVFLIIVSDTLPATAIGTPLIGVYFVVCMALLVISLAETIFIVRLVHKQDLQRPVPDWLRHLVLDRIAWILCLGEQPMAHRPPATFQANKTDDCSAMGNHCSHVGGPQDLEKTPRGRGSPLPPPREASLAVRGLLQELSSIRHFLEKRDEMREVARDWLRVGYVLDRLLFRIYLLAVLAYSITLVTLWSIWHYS

[2] = molecular target: T2, E129N mutant 5-HT3 receptor (mouse 5-HT3A subunit) (Mus musculus, UniProt P23979, E129N); experiment: as above; assay type: cell-based; details: 100 nM granisetron, EC50 concentration of 5-HT
T2 sequence (P23979 24-483 isoform P23979-2 E129N limits assumed): T1 sequence (P23979 24-483 isoform P23979-2 E129D limits assumed) with D106N

[3] = molecular target: T3, WT 5-HT3 receptor (mouse 5-HT3A subunit) (Mus musculus, UniProt P23979); experiment: Agonist-induced currents, voltage clamp electrophysiology in Xenopus oocytes; assay type: cell-based; details: for EC50: oocytes, holding potential −60 mV; for nH (Hill coefficient): WT
T3 sequence (P23979 24-483 isoform P23979-2 limits assumed): T1 sequence (P23979 24-483 isoform P23979-2 E129D limits assumed) with D106E

[4] = molecular target: T4, N128A mutant 5-HT3 receptor (mouse 5-HT3A subunit) (Mus musculus, UniProt P23979, N128A); experiment: as above; assay type: cell-based; details: for nH (Hill coefficient): N128A
T4 sequence (P23979 24-483 isoform P23979-2 N128A limits assumed): T1 sequence (P23979 24-483 isoform P23979-2 E129D limits assumed) with N105A, D106E

[5] = molecular target: T5, N128E mutant 5-HT3 receptor (mouse 5-HT3A subunit) (Mus musculus, UniProt P23979, N128E); experiment: as above; assay type: cell-based; details: for nH (Hill coefficient): N128E
T5 sequence (P23979 24-483 isoform P23979-2 N128E limits assumed): T1 sequence (P23979 24-483 isoform P23979-2 E129D limits assumed) with N105E, D106E

[6] = molecular target: T6, N128Q mutant 5-HT3 receptor (mouse 5-HT3A subunit) (Mus musculus, UniProt P23979, N128Q); experiment: as above; assay type: cell-based; details: for nH (Hill coefficient): N128Q
T6 sequence (P23979 24-483 isoform P23979-2 N128Q limits assumed): T1 sequence (P23979 24-483 isoform P23979-2 E129D limits assumed) with N105Q, D106E

[7] = molecular target: T7, N128D mutant 5-HT3 receptor (mouse 5-HT3A subunit) (Mus musculus, UniProt P23979, N128D); experiment: as above; assay type: cell-based
T7 sequence (P23979 24-483 isoform P23979-2 N128D limits assumed): T1 sequence (P23979 24-483 isoform P23979-2 E129D limits assumed) with N105D, D106E

[8] = molecular target: T1, E129D mutant 5-HT3 receptor (mouse 5-HT3A subunit); experiment: as above; assay type: cell-based
[9] = molecular target: T2, E129N mutant 5-HT3 receptor (mouse 5-HT3A subunit); experiment: as above; assay type: cell-based
[10] = molecular target: E129A mutant 5-HT3 receptor (mouse 5-HT3A subunit) (Mus musculus, UniProt P23979, E129A); experiment: Single-point [3H]granisetron binding to solubilized oocyte preparations; details: 0.5 nM [3H]granisetron
Chain of E129A mutant 5-HT3 receptor (mouse 5-HT3A subunit) (P23979 24-489 E129A): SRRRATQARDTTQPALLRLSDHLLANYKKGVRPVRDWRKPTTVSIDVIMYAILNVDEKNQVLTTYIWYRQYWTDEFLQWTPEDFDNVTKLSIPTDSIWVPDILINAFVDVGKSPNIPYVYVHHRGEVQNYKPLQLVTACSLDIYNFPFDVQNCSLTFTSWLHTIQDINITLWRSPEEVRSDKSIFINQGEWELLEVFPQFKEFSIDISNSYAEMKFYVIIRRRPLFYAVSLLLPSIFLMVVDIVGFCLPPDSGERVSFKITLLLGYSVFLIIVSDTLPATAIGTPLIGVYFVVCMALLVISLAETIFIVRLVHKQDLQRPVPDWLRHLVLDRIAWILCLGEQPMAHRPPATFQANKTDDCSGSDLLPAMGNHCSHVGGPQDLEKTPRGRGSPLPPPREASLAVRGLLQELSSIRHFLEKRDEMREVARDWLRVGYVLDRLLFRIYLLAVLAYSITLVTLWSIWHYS

[11] = molecular target: E129G mutant 5-HT3 receptor (mouse 5-HT3A subunit) (Mus musculus, UniProt P23979, E129G); experiment: as above; details: 0.5 nM [3H]granisetron
Chain of E129G mutant 5-HT3 receptor (mouse 5-HT3A subunit) (P23979 24-483 isoform P23979-2 E129G limits assumed): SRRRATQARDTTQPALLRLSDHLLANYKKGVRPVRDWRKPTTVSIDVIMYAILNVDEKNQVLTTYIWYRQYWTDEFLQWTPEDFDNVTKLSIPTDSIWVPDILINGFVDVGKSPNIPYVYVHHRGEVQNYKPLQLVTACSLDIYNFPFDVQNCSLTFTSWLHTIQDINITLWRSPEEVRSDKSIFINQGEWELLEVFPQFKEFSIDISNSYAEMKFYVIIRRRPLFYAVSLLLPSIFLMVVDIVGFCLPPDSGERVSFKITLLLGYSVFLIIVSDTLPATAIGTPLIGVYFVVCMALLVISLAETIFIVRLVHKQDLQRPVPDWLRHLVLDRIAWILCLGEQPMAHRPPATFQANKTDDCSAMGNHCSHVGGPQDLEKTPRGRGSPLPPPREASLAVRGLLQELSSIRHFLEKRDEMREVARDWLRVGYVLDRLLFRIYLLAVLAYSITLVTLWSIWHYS

[12] = molecular target: E129K mutant 5-HT3 receptor (mouse 5-HT3A subunit) (Mus musculus, UniProt P23979, E129K); experiment: as above; details: 0.5 nM [3H]granisetron
Chain of E129K mutant 5-HT3 receptor (mouse 5-HT3A subunit) (P23979 24-483 isoform P23979-2 E129K limits assumed): as the sequence (P23979 24-483 isoform P23979-2 E129G limits assumed) above, with G106K counted along it

[13] = tested on: Asn128 mutant 5-HT3 receptors; details: Asn128 mutant receptors in HEK cells; cited from earlier work
[14] = tested on: Glu129 mutant 5-HT3 receptors; details: any Glu129 mutant receptor in HEK cells; concentrations up to 20 nM; cited from earlier work

Compound | nH (Hill coefficient) [3] | EC50 ([3]; pEC50, WT) | EC50 [4] | nH (Hill coefficient) [4] | EC50 [5] | nH (Hill coefficient) [5] | EC50 [6] | nH (Hill coefficient) [6] | further results
CN1C2CCCC1CC(NC(=O)c1nn(C)c3ccccc13)C2 (stereo not shown) [granisetron] |  |  |  |  |  |  |  |  | block of the response to 5-HT ([1]; 10 nM granisetron): 80 ± 5% and ~80%; block of the response to 5-HT ([1]; 100 nM granisetron): 96 ± 3%; block of the response to 5-HT [2]: did not block
NCCc1c[nH]c2ccccc12 [tryptamine] | 2.86 ± 0.14 | 117 µM | 91 µM | 2.90 ± 0.68 | 59 µM | 2.90 ± 0.53 | 240 µM | 3.10 ± 0.39 | EC50 ([3]; EC50, WT): 120 µM
NCCc1c[nH]c2ccc(F)cc12 [5-FT, 5-fluorotryptamine] | 2.71 ± 0.24 | 17.8 µM | 10 µM | 2.34 ± 0.75 | 13.8 µM | 1.97 ± 0.18 | 94 µM | 2.38 ± 0.58 | EC50 [7]: 17.8 µM; nH (Hill coefficient) ([7]; N128D): 2.61 ± 0.28; EC50 [8]: 8.3 µM; nH (Hill coefficient) ([8]; E129D): 1.95 ± 0.30; EC50 [9]: 11.7 µM; nH (Hill coefficient) ([9]; E129N): 1.25 ± 0.13 ^b
CN1C2CCCC1CC(NC(=O)c1nn(C)c3ccccc13)C2 (stereo not shown) [[^3H]granisetron] |  |  |  |  |  |  |  |  | specific radioligand binding [10]: No specific radioligand binding; specific radioligand binding [11]: No specific radioligand binding; specific radioligand binding [12]: No specific radioligand binding; binding affinity vs WT [13]: no significant differences; specific binding [14]: no specific binding
